Measured values from article PMC7983974 (Basic & Clinical Pharmacology & Toxicology, 2020).
Several values for one entry are separate records, joined by “and”; a condition that tells them apart may be missing. Identical values can stand only once. Like-named read-outs stand apart in the source and are kept apart here.

What was measured:
[1] = test system: molidustat glucuronidation (clearance); test: In vitro-in vivo scaling: predicted increase in molidustat AUC; parameters: species or system human; details: fm 0.9; unbound hepatic inlet concentration, ka 0.1 min^−1
[2] = target: T1, UGT-mediated glucuronidation of molidustat in human liver microsomes (HLMs) (Homo sapiens, UniProt P22309); test: Inhibition of M1 formation from molidustat in pooled human liver microsomes; format: in vitro ADME; details: pooled HLMs 0.3 mg/mL, molidustat 5 µmol/L, 30 min, N=1; Table 1
T1 sequence (P22309 26-533): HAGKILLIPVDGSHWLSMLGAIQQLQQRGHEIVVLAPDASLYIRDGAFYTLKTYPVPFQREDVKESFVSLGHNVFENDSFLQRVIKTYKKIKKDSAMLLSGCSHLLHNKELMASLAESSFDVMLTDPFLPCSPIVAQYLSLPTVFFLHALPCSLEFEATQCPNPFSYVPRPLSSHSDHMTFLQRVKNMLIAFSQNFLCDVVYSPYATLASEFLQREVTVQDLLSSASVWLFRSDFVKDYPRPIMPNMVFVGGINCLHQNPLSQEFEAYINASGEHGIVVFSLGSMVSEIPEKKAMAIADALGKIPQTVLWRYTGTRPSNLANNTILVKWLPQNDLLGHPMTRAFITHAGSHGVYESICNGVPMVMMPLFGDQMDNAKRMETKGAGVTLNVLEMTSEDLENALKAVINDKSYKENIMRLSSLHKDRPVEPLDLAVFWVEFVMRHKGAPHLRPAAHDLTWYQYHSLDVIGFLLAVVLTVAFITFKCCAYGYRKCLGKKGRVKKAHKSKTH

[3] = target: T2, UGT-mediated glucuronidation of molidustat (M1 formation) (Homo sapiens, UniProt P22309); test: as above; format: in vitro ADME; details: human, pooled human liver microsomes, probe molidustat 5 µmol/L (formation of M1), IC50, pooled HLMs 0.3 mg/mL, N=1, Table 1
T2 sequence (P22309 26-533): T1 sequence (P22309 26-533)

[4] = test system: pooled human liver microsomes; test: Isoform-specific UGT inhibitors on M1 formation in human liver microsomes; format: in vitro ADME; details: inhibitor 10 µmol L^−1; for inhibitory activity on M1 formation: liver, intestine and kidney microsomes
[5] = cited from earlier work
[6] = test system: pooled human kidney microsomes; test: Isoform-specific UGT inhibitors on M1 formation in human kidney microsomes; format: in vitro ADME; details: inhibitor 10 µmol L^−1; molidustat 4.9 µmol L^−1; n = 2
[7] = test system: pooled human intestine microsomes; test: Isoform-specific UGT inhibitors on M1 formation in human intestine microsomes; format: in vitro ADME; details: inhibitor 10 µmol L^−1; molidustat 4.9 µmol L^−1; n = 2
[8] = format: in vivo, human; details: for t max: n = 13, median and range
[9] = (Molidustat + atazanavir)/molidustat, ANOVA

In the case of `COC(=O)N[C@H](C(=O)N[C@@H](Cc1ccccc1)[C@@H](O)CN(Cc1ccc(-c2ccccn2)cc1)NC(=O)[C@@H](NC(=O)OC)C(C)(C)C)C(C)(C)C` [Atazanavir], the “AUCRinlet, ka 0.1 min^−1 (estimated increase in molidustat AUC)” value [1] is reported as “more than fivefold”.
Work on `C#C[C@]1(O)CC[C@H]2[C@@H]3CCc4cc(O)ccc4[C@H]3CC[C@@]21C` [17a‐Ethynylestradiol] yielded an IC50 [2] of 10.8 µM.
For `C#Cc1cccc(Nc2ncnc3cc(OCCOC)c(OCCOC)cc23)c1` [Erlotinib], the IC50 at 30 min [3] was 0.13 µM and the “AUCRinlet, ka 0.1 min^−1 (estimated increase in molidustat AUC)” value [1] was “more than fivefold”.
With `Cc1cccc(Nc2ccccc2C(=O)O)c1C` [Mefenamic acid] the “inhibitory activity on M1 formation” value [4] was “none or very little activity” and the IC50 at 30 min [3] was 16 µM.
For `Cc1c(F)cccc1NC(=O)Nc1ccc(Cl)c(S(=O)(=O)[C@H]2CCCNC2)c1O` [danirixin], the “drug excreted as glucuronides” value [5] is given as “approximately 90%” and the “recovered as directly conjugated parent compound” value [5] is given as 80%.
Compound `Cc1nc(-c2ccc(OCC(C)C)c(C#N)c2)sc1C(=O)O` [Febuxostat] has an IC50 at 30 min [3] of 7.2 µM.
With `COc1ccccc1OCCNCC(O)COc1cccc2[nH]c3ccccc3c12` (stereo not drawn) [Carvedilol] the IC50 at 30 min [3] was 2.9 µM.
In the case of `COc1ccc(/C=C/C(=O)Nc2ccccc2C(=O)O)cc1OC` [Tranilast], the IC50 at 30 min [3] is reported as 1.7 µM.
Work on `COc1ccnc(C[S+]([O-])c2nc3ccc(OC(F)F)cc3[nH]2)c1OC` (stereo not drawn) [Pantoprazole] yielded an IC50 at 30 min [3] of 19.7 µM.
Work on `CO[C@H]1C[C@@H]2CC[C@@H](C)[C@@](O)(O2)C(=O)C(=O)N2CCCC[C@H]2C(=O)O[C@H]([C@H](C)C[C@@H]2CC[C@@H](OCCO)[C@H](OC)C2)CC(=O)[C@H](C)/C=C(\C)[C@@H](O)[C@@H](OC)C(=O)[C@H](C)C[C@H](C)/C=C/C=C/C=C/1C` [Everolimus] yielded an IC50 at 30 min [3] of 4.5 µM.
Compound `O=c1c(-c2ccc(O)cc2)coc2cc(O)ccc12` [Daidzein] has an IC50 at 30 min [3] of 6.8 µM.
For `Cc1c(O)cccc1C(=O)N[C@@H](CSc1ccccc1)[C@H](O)CN1C[C@H]2CCCC[C@H]2C[C@H]1C(=O)NC(C)(C)C` [Nelfinavir], the IC50 at 30 min [3] was 1.5 µM.
In the case of `C=CC1=C(C)/C(=C/c2[nH]c(Cc3[nH]c(/C=C4\NC(=O)C(C)=C4C=C)c(C)c3CCC(=O)O)c(CCC(=O)O)c2C)NC1=O` [Bilirubin], the IC50 at 30 min [3] is reported as 1.5 µM.
With `COc1ccc(CCN2CCC(Nc3nc4ccccc4n3Cc3ccc(F)cc3)CC2)cc1` [Astemizole] the IC50 at 30 min [3] was 23.5 µM.
In the case of `CC(C)(C)NC(=O)[C@@H]1CN(Cc2cccnc2)CCN1C[C@@H](O)C[C@@H](Cc1ccccc1)C(=O)N[C@H]1c2ccccc2C[C@H]1O` [Indinavir], the IC50 at 30 min [3] is reported as 3 µM.
Compound `C[C@]12CC[C@@H](O)C[C@@H]1CC[C@@H]1[C@@H]2CC[C@]2(C)C(=O)CC[C@@H]12` [Androsterone] has an IC50 at 30 min [3] of 44 µM.
In the case of Hecogenin, the “M1 formation in % of control in microsomal tissue, Kidney” value [6] is reported as 102.4%, the “inhibitory activity on M1 formation” value [4] is reported as “none or very little activity” and the “M1 formation in % of control in microsomal tissue, Liver” value ([4]; molidustat 4.9 µmol L^−1, n = 2) is reported as 104.7%. For the same compound, the “M1 formation in % of control in microsomal tissue, Intestine” value [7] was 106.0%.
`Cc1ccc(C)c(OCCCC(C)(C)C(=O)O[C@@H]2O[C@H](C(=O)O)[C@@H](O)[C@H](O)[C@H]2O)c1` [Gemfibrozil glucuronide] showed an IC50 [2] of 96.1 µM.
`CC(C)=CCC/C(C)=C/COc1c2ccoc2cc2oc(=O)ccc12` [Bergamottin] showed an IC50 at 30 min [3] of 14.8 µM.
In the case of `COc1cccc2c1C(=O)c1c(O)c3c(c(O)c1C2=O)C[C@@](O)(C(=O)CO)C[C@@H]3O[C@H]1C[C@H](N)[C@H](O)[C@H](C)O1` [Doxorubicin], the IC50 at 30 min [3] is reported as 40.4 µM.
Compound `O=C(O)C[C@H](O)C[C@H](O)/C=C/c1c(C2CC2)nc2ccccc2c1-c1ccc(F)cc1` [Pitavastatin] has an IC50 at 30 min [3] of 14.8 µM.
For `CCN(CC)CCNC(=O)c1c(C)[nH]c(/C=C2\C(=O)Nc3ccc(F)cc32)c1C` [Sunitinib], the IC50 at 30 min [3] was 18.7 µM.
Work on `O=c1c(-c2ccc(O)cc2)coc2cc(O)cc(O)c12` [Genistein] yielded an IC50 at 30 min [3] of 2.3 µM.
For `Cc1c(OCC(F)(F)F)ccnc1C[S+]([O-])c1nc2ccccc2[nH]1` (stereo not drawn) [Lansoprazole], the IC50 at 30 min [3] was 36.8 µM.
For Molidustat glucuronide [M1], the t max ([8]; 25 mg molidustat + atazanavir 400 mg qd for 5 days) was 2.0 (1.5‐4.0) H, the t max ([8]; 25 mg molidustat alone) was 2.0 (1.0‐3.0) H and the “Point estimate parameter ratio, AUC” value [8, 9] was 0.85 and 0.8472. For the same compound, the “Point estimate parameter ratio, AUC(0‐tlast)” value [8, 9] was 0.8470, the “Point estimate parameter ratio, C max” value [8, 9] was 0.80 and 0.8002 and the “reduction in systemic exposure to the glucuronide M1 with atazanavir” value ([8]; human, in vivo) was −15%. For the same compound, the “exposure to M1 in the presence of atazanavir” value ([8]; relative to molidustat alone) was “approximately 85%”.
Compound `O=C1C(CC[S+]([O-])c2ccccc2)C(=O)N(c2ccccc2)N1c1ccccc1` (stereo not drawn) [Sulfinpyrazone] has an IC50 at 30 min [3] of 31.4 µM.
With `O=c1c(O)c(-c2ccc(O)c(O)c2)oc2cc(O)cc(O)c12` [Quercetin] the IC50 at 30 min [3] was 5.5 µM.
For `Cc1cn(-c2cc(NC(=O)c3ccc(C)c(Nc4nccc(-c5cccnc5)n4)c3)cc(C(F)(F)F)c2)cn1` [Nilotinib], the IC50 at 30 min [3] was 0.17 µM and the “AUCRinlet, ka 0.1 min^−1 (estimated increase in molidustat AUC)” value [1] was “more than fivefold”.
`CC(=O)N1CCN(c2ccc(OCC3COC(Cn4ccnc4)(c4ccc(Cl)cc4Cl)O3)cc2)CC1` (stereo not drawn) [Ketoconazole] gave an IC50 at 30 min [3] of 6.1 µM.
Compound `CCC(C)n1ncn(-c2ccc(N3CCN(c4ccc(OCC5COC(Cn6cncn6)(c6ccc(Cl)cc6Cl)O5)cc4)CC3)cc2)c1=O` (stereo not drawn) [Itraconazole] has an IC50 at 30 min [3] of 1.2 µM.
Compound `COc1ccc2[nH]c([S+]([O-])Cc3ncc(C)c(OC)c3C)nc2c1` (stereo not drawn) [Omeprazole] has an IC50 at 30 min [3] of 17.1 µM.
Work on `CC1=C(CC(=O)O)c2cc(F)ccc2/C1=C\c1ccc([S+](C)[O-])cc1` (stereo not drawn) [Sulindac] yielded an IC50 at 30 min [3] of 37.5 µM.
